Test results as given in patent US12522635B2, “Amyloid peptide variants” (Loyola Marymount University, priority 2019, dated 2026).
“Also recorded” adds a separate entry of the source. Where a SMILES comes first, the peptide text is derived from it. Bridges are numbered along the chain shown (N, C = ends).

Columns and labels:
[1] = target: T1, human IAPP (hIAPP) (Homo sapiens, UniProt P10997); assay: Atomic force microscopy (AFM) of hIAPP fibril formation when mixed with IAPP peptides; type: biochemical; conditions: for inhibition of hIAPP fibril formation, AFM: 37 μM hIAPP and 75 μM peptide, 37° C. with shaking for 40 minutes
T1 construct: This 37 amino acid polypeptide is co-secreted from pancreatic β-islet cells with insulin
T1 sequence (P10997 34-70 limits assumed): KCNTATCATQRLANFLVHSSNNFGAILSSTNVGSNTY
Procedure, shortened: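 hIAPP (37–40 μM) alone or mixed with other IAPP peptides (equimolar or about 2:1 peptide:hIAPP) was shaken at 37° C for 30–40 minutes. Samples deposited on mica, washed with water, dried and imaged by AFM in A/C mode; scans […], raw unflattened data.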

[2] = target: T1, human IAPP (hIAPP); assay: Thioflavin T binding assay of hIAPP aggregation when mixed with IAPP peptides; type: biochemical; conditions: peptide mixed with hIAPP; no single assay (thioflavin T and AFM)
Procedure, shortened: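 37 μM hIAPP plus 75 μM animal IAPP (2:1) in 20 mM Tris pH 7.4, shaken 200 rpm at 37 °C for 40 min. Aliquots were mixed into 50.0 μM thioflavin T and emission read at 488 nm, with fibrils checked by AFM. Significance vs hIAPP alone was determined by t-test.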

[3] = tested on: RIN-m cells; assay: MTT viability assay, peptide alone or mixed with hIAPP; type: cell-based; conditions: for rescue / protection of cells from hIAPP toxicity (words): hIAPP mixed with peptide 1:1, MTT assay; for toxicity of peptide to cells: peptide alone, MTT assay, pancreatic (RIN-m) cells
From the text: Cytoprotection can likewise be measured by a number of assays known to the art. One such assay is the MTT assay, which is a colorimetric assay for assessing cell metabolic activity. NAD(P)H-dependent cellular oxidoreductase enzymes in the cytosolic compartment of a cell reduces the tetrazolium dye MTT 3-(4,5-dimethylthiazol-2-yl)-2,5-diphenyltetrazolium bromide to an insoluble form, formazan, which has a purple color. The reduction of MTT (and other tetrazolium dyes) depends on the cellular metabolic activity, so a loss of color in the course of performing an MTT assay indicates low metabolic activity, and is thus an indicator of cell damage and death.
To test cell viability, a MTT colorimetric assay measuring the conversion of yellow tetrazolium salt into purple formazan crystal catalyzed by a mitochondrial reductase was used. Cell viability studies were performed using RIN-m cells (ATCC, CRL-2057). An equal number of RIN-m cells were plated in triplicate and incubated overnight in 96-well plates. The next day, fresh RPMI-1640 with phenol red supplemented with 10% FBS was added to cells. Hexafluoroisopropanol (HFIP) was removed from each individual human and animal IAPP using a centrivap concentrator (LabOnco). All IAPP peptide samples were re-suspended in RPMI-1640 with 10% FBS. To ensure even re-suspension, each resulting IAPP-containing vial was scraped with a pipette tip six times and vortexed (Vortex Genie Mixer) for 15 seconds. The whole process, from drying each IAPP peptide to adding each IAPP peptide to the cells was uniform to ensure that each sample was incubated for an equal amount of time with each IAPP peptide. IAPP peptides were added to cells and incubated for 46 hours at 37° C. Post-incubation, the media in each well was replaced by fresh DMEM/F-12 without phenol red. MTT (3-(4,5-dimethyl-2-thiazolyl)-2,5-diphenyl-tetrazolium bromide) was added into each well and incubated at 37° C. for 2 hours. Formazan crystals, formed on the bottom of the wells, were re-suspended in solubilization buffer (20% SDS and 50% dimethylformamide). The absorbance in each well was taken at 570 nm using a Multiskan FC Microplate Photometer (Thermos Fisher Scientific). Media were obtained from ATCC. All incubations took place in a water jacketed incubator in 5% carbon dioxide at 37° C. (Shell Lab).
The MTT viability assay was used to measure cell viability of RIN-m cells upon addition of hIAPP alone, the addition of each animal IAPP peptide alone, and hIAPP mixed with each animal IAPP peptide (results shown in FIG. 5). RIN-m cells alone were used as a control and set to 100% cell viability. […] Addition of raccoon IAPP to hIAPP increased the cell viability from 55% to an average of 72% (p=0.005705). Addition of chicken IAPP variant to hIAPP increased cell viability to an average of 76% (p=0.013556).

[4] = target: T1, human IAPP (hIAPP); assay: hIAPP aggregation in the presence of human insulin; type: biochemical
[5] = AFM of peptide alone (self-aggregation / fibril formation); type: physicochemical; conditions: for aggregation propensity relative to comparator: comparison of pramlintide with the IAPP peptides; for aggregation / fibril formation of peptide alone, AFM: incubated 40 minutes at 37° C. with shaking
Description: Samples labeled with hIAPP contained 40 μM hIAPP. The sample with pramlintide and hIAPP contained a 2:1 molar mixture (80 μM Pramlintide mixed with 40 μM hIAPP). The samples with raccoon IAPP and Pramlintide alone contained 40 μM of the indicated peptides. Each sample was incubated for 40 minutes at 37° C. with shaking; conditions known to promote hIAPP amyloid formation. All scans show raw data with no flattening and are […].
Samples of hIAPP with or without animal IAPP were prepared as described in Example 1 and were then incubated with shaking at 37° C. for 40 minutes. After this incubation, 17 μL of each sample was deposited onto freshly cleaved mica. Samples were incubated for 5 minutes at room temperature before washing with 200 μL sterile water. After drying, the samples were scanned using an MFP-3D atomic force microscope (Asylum Research) set on A/C mode and a 240 m silicon cantilever (Olympus).
Many of the animal IAPP variants are known to likewise form fibrils and yield amyloid-plaques when scanned via AFM. […] This is in spite of the fact that all of these IAPP peptides (except polar bear IAPP) are known to aggregate and form fibrils themselves under these or similar conditions

| SMILES | inhibition of hIAPP fibril formation, AFM [1] | inhibition of hIAPP aggregation (summary statement) [2] | rescue / protection of cells from hIAPP toxicity (words) [3] | prevention of hIAPP aggregation in the presence of human insulin [4] | aggregation propensity relative to comparator [5] | cell viability, peptide alone ([3]; 12.8 μM, RIN-m cells, 46 hours, cells alone set to 100%) | aggregation / fibril formation of peptide alone, AFM [5] | toxicity of peptide to cells [3] | prevention of hIAPP aggregation, AFM (FIG. 5) ([1]; 40 μM hIAPP, pramlintide 80 μM (2:1), 40 minutes at 37° C. with shaking) |
| --- | --- | --- | --- | --- | --- | --- | --- | --- | --- |
| CC[C@H](C)[C@H](NC(=O)[C@H](C)NC(=O)CNC(=O)[C@@H](NC(=O)[C@H](CC(N)=O)NC(=O)[C@H](CO)NC(=O)[C@H](CO)NC(=O)[C@H](CO)NC(=O)[C@H](CCCNC(=N)N)NC(=O)[C@@H](NC(=O)[C@H](CC(C)C)NC(=O)[C@H](Cc1ccccc1)NC(=O)[C@H](CC(=O)O)NC(=O)[C@H](C)NC(=O)[C@H](CC(C)C)NC(=O)[C@H](CCCNC(=N)N)NC(=O)[C@H](CCC(N)=O)NC(=O)[C@@H](NC(=O)[C@@H](NC(=O)[C@@H]1CSSC[C@H](NC(=O)[C@@H](N)CCCCN)C(=O)N[C@@H](CC(N)=O)C(=O)N[C@@H]([C@@H](C)O)C(=O)N[C@@H](C)C(=O)N[C@@H]([C@@H](C)O)C(=O)N1)C(C)C)[C@@H](C)O)C(C)C)[C@@H](C)CC)C(=O)N[C@@H](Cc1ccc(O)cc1)C(=O)N[C@@H](CO)C(=O)N1CCC[C@H]1C(=O)N[C@H](C(=O)N[C@@H](CC(N)=O)C(=O)N[C@H](C(=O)NCC(=O)N[C@@H](CO)C(=O)N[C@@H](CC(N)=O)C(=O)N[C@H](C(=O)N[C@@H](Cc1ccc(O)cc1)C(N)=O)[C@@H](C)O)C(C)C)[C@@H](C)O [chicken IAPP] (H-KCNTATCVTQRLADFLVRSSSNIGAIYSPTNVGSNTY-NH2; disulfide 2-7 (inferred); N-terminus and C-terminus assumed) | significant ability to prevent fiber formation | able to inhibit such aggregation; also recorded: inhibit aggregate formation by hIAPP | significant increase in cell viability; also recorded: rescue living cells from the toxic effects of hIAPP | prevent hIAPP aggregation in the presence of human insulin | less aggregation-prone than Pramlintide | – | – | – | – |
| CC[C@H](C)[C@H](NC(=O)[C@H](C)NC(=O)CNC(=O)[C@H](Cc1ccccc1)NC(=O)[C@H](CC(N)=O)NC(=O)[C@H](CC(N)=O)NC(=O)[C@H](CO)NC(=O)[C@H](CO)NC(=O)[C@H](Cc1c[nH]cn1)NC(=O)[C@@H](NC(=O)[C@H](CC(C)C)NC(=O)[C@H](Cc1ccccc1)NC(=O)[C@H](CC(N)=O)NC(=O)[C@H](C)NC(=O)[C@H](CC(C)C)NC(=O)[C@H](CCCNC(=N)N)NC(=O)[C@H](CCC(N)=O)NC(=O)[C@@H](NC(=O)[C@H](C)NC(=O)[C@@H]1CSSC[C@H](NC(=O)[C@@H](N)CCCCN)C(=O)N[C@@H](CC(N)=O)C(=O)N[C@@H]([C@@H](C)O)C(=O)N[C@@H](C)C(=O)N[C@@H]([C@@H](C)O)C(=O)N1)[C@@H](C)O)C(C)C)C(=O)N[C@@H](CC(C)C)C(=O)N[C@@H](CO)C(=O)N[C@@H](CO)C(=O)N[C@H](C(=O)N[C@@H](CC(N)=O)C(=O)N[C@H](C(=O)NCC(=O)N[C@@H](CO)C(=O)N[C@@H](CC(N)=O)C(=O)N[C@H](C(=O)N[C@@H](Cc1ccc(O)cc1)C(N)=O)[C@@H](C)O)C(C)C)[C@@H](C)O [hIAPP, reference compound] | – | – | – | – | – | 55+/−5% | forms high-density fibrils | – | – |
| CC[C@H](C)[C@H](NC(=O)[C@@H]1CCCN1C(=O)CNC(=O)[C@H](Cc1ccccc1)NC(=O)[C@H](CC(N)=O)NC(=O)[C@H](CC(N)=O)NC(=O)[C@H](CO)NC(=O)[C@H](CO)NC(=O)[C@H](Cc1c[nH]cn1)NC(=O)[C@@H](NC(=O)[C@H](CC(C)C)NC(=O)[C@H](Cc1ccccc1)NC(=O)[C@H](CC(N)=O)NC(=O)[C@H](C)NC(=O)[C@H](CC(C)C)NC(=O)[C@H](CCCNC(=N)N)NC(=O)[C@H](CCC(N)=O)NC(=O)[C@@H](NC(=O)[C@H](C)NC(=O)[C@@H]1CSSC[C@H](NC(=O)[C@@H](N)CCCCN)C(=O)N[C@@H](CC(N)=O)C(=O)N[C@@H]([C@@H](C)O)C(=O)N[C@@H](C)C(=O)N[C@@H]([C@@H](C)O)C(=O)N1)[C@@H](C)O)C(C)C)C(=O)N[C@@H](CC(C)C)C(=O)N1CCC[C@H]1C(=O)N1CCC[C@H]1C(=O)N[C@H](C(=O)N[C@@H](CC(N)=O)C(=O)N[C@H](C(=O)NCC(=O)N[C@@H](CO)C(=O)N[C@@H](CC(N)=O)C(=O)N[C@H](C(=O)N[C@@H](Cc1ccc(O)cc1)C(N)=O)[C@@H](C)O)C(C)C)[C@@H](C)O [pramlintide, reference compound] | – | – | no ability to protect cells from the toxic effects of hIAPP | – | more amyloidogenic than the present IAPP peptides | – | formed amyloid fibers | toxic to the cells | – |
| CC[C@H](C)[C@H](NC(=O)[C@H](C)NC(=O)CNC(=O)[C@H](CC(C)C)NC(=O)[C@H](CC(N)=O)NC(=O)[C@H](CC(N)=O)NC(=O)[C@H](CO)NC(=O)[C@H](CO)NC(=O)[C@H](CCCNC(=N)N)NC(=O)[C@H](CC(C)C)NC(=O)[C@H](CC(C)C)NC(=O)[C@H](Cc1ccccc1)NC(=O)[C@H](CC(N)=O)NC(=O)[C@H](C)NC(=O)[C@H](CC(C)C)NC(=O)[C@H](CCCNC(=N)N)NC(=O)[C@H](CCC(N)=O)NC(=O)[C@@H](NC(=O)[C@@H](NC(=O)[C@@H]1CSSC[C@H](NC(=O)[C@@H](N)CCCCN)C(=O)N[C@@H](CC(N)=O)C(=O)N[C@@H]([C@@H](C)O)C(=O)N[C@@H](C)C(=O)N[C@@H]([C@@H](C)O)C(=O)N1)C(C)C)[C@@H](C)O)C(=O)N[C@@H](CC(C)C)C(=O)N[C@@H](CO)C(=O)N1CCC[C@H]1C(=O)N[C@H](C(=O)N[C@@H](CC(N)=O)C(=O)N[C@H](C(=O)NCC(=O)N[C@@H](CO)C(=O)N[C@@H](CC(N)=O)C(=O)N[C@H](C(=O)N[C@@H](Cc1ccc(O)cc1)C(N)=O)[C@@H](C)O)C(C)C)[C@@H](C)O [raccoon IAPP] (H-KCNTATCVTQRLANFLLRSSNNLGAILSPTNVGSNTY-NH2; disulfide 2-7 (inferred); N-terminus and C-terminus assumed) | significant ability to prevent fiber formation | able to inhibit such aggregation; also recorded: inhibit aggregate formation by hIAPP | protected the RIN-m cells from the toxic effects of hIAPP; also recorded: significant increase in cell viability; also recorded: rescue living cells from the toxic effects of hIAPP | prevent hIAPP aggregation in the presence of human insulin | less aggregation-prone than Pramlintide | – | did not aggregate | some cellular toxicity | prevented hIAPP from aggregating |
